Laboratory results as given in PubChem BioAssay (NCI).
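Following 48 hours of exposure in 96-well plates, responses at five concentrations were used to interpolate endpoints linearly. Abbreviation: GI50, concentration required for 50% inhibition of growth. TGI: concentration producing complete growth inhibition.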

Columns and labels:
Assay in all cases: NCI anticancer screen, dose series, 48 h
HCC-2998 colon = tested on: HCC-2998 colon
TK-10 renal = tested on: TK-10 renal
OVCAR-5 ovarian = tested on: OVCAR-5 ovarian
PC-3 prostate = tested on: PC-3 prostate
DU-145 prostate = tested on: DU-145 prostate
HOP-92 NSCLC = tested on: HOP-92 NSCLC
KM12 colon = tested on: KM12 colon
SNB-75 CNS = tested on: SNB-75 CNS
MDA-MB-231 breast = tested on: MDA-MB-231 breast
UACC-62 melanoma = tested on: UACC-62 melanoma
SK-OV-3 ovarian = tested on: SK-OV-3 ovarian
SF-539 CNS = tested on: SF-539 CNS
A498 renal = tested on: A498 renal
BT-549 breast = tested on: BT-549 breast
M14 melanoma = tested on: M14 melanoma
SF-295 CNS = tested on: SF-295 CNS
HS 578T breast = tested on: HS 578T breast
NCI-H23 lung = tested on: NCI-H23 lung
CAKI-1 renal = tested on: CAKI-1 renal
786-0 renal = tested on: 786-0 renal
U251 CNS = tested on: U251 CNS
OVCAR-3 ovarian = tested on: OVCAR-3 ovarian
SR leukemia = tested on: SR leukemia
RPMI-8226 leukemia = tested on: RPMI-8226 leukemia
K-562 leukemia = tested on: K-562 leukemia
SK-MEL-2 melanoma = tested on: SK-MEL-2 melanoma
SNB-19 CNS = tested on: SNB-19 CNS
HCT-116 colon = tested on: HCT-116 colon
EKVX NSCLC = tested on: EKVX NSCLC
SN12C renal = tested on: SN12C renal
HT29 colon = tested on: HT29 colon
UO-31 renal = tested on: UO-31 renal
A549 NSCLC = tested on: A549 NSCLC
MCF7 breast = tested on: MCF7 breast
COLO 205 colon = tested on: COLO 205 colon
T-47D breast = tested on: T-47D breast
CCRF-CEM leukemia = tested on: CCRF-CEM leukemia
OVCAR-8 ovarian = tested on: OVCAR-8 ovarian
SF-268 CNS = tested on: SF-268 CNS
UACC-257 melanoma = tested on: UACC-257 melanoma
LOX IMVI melanoma = tested on: LOX IMVI melanoma
SK-MEL-28 melanoma = tested on: SK-MEL-28 melanoma
NCI-H226 lung = tested on: NCI-H226 lung
NCI/ADR-RES ovarian = tested on: NCI/ADR-RES ovarian
IGROV1 ovarian = tested on: IGROV1 ovarian
MALME-3M melanoma = tested on: MALME-3M melanoma
HOP-62 NSCLC = tested on: HOP-62 NSCLC
NCI-H522 lung = tested on: NCI-H522 lung
MOLT-4 leukemia = tested on: MOLT-4 leukemia
ACHN renal = tested on: ACHN renal
NCI-H460 lung = tested on: NCI-H460 lung
MDA-MB-435 = tested on: MDA-MB-435
SW-620 colon = tested on: SW-620 colon
SK-MEL-5 melanoma = tested on: SK-MEL-5 melanoma
HCT-15 colon = tested on: HCT-15 colon

O=C1/C(=C\c2cn(CC(O)CN3CCCCC3)c3ccccc23)c2ccccc2N1c1c(Cl)cccc1Cl (stereo unspecified) gave a GI50 (HCC-2998 colon) of 1.73 µM, a TGI (HCC-2998 colon) of 3.16 µM and a GI50 (TK-10 renal) of 1.82 µM. It also gave a TGI (TK-10 renal) of 3.29 µM, a GI50 (OVCAR-5 ovarian) of 1.57 µM and a TGI (OVCAR-5 ovarian) of 2.92 µM. It also gave a GI50 (PC-3 prostate) of 1.41 µM, a TGI (PC-3 prostate) of 2.81 µM and a GI50 (DU-145 prostate) of 1.88 µM. The TGI (DU-145 prostate) was 3.32 µM, the GI50 (HOP-92 NSCLC) was 1.59 µM and the TGI (HOP-92 NSCLC) was 3.2 µM. The GI50 (KM12 colon) was 1.89 µM, the TGI (KM12 colon) was 3.37 µM and the GI50 (SNB-75 CNS) was 1.3 µM. For the same compound, the TGI (SNB-75 CNS) was 2.63 µM, the GI50 (MDA-MB-231 breast) was 1.79 µM and the TGI (MDA-MB-231 breast) was 3.21 µM. For the same compound, the GI50 (UACC-62 melanoma) was 1.76 µM, the TGI (UACC-62 melanoma) was 3.2 µM and the GI50 (SK-OV-3 ovarian) was 1.63 µM. For the same compound, the TGI (SK-OV-3 ovarian) was 3.13 µM, the GI50 (SF-539 CNS) was 1.68 µM and the TGI (SF-539 CNS) was 3.18 µM. For the same compound, the GI50 (A498 renal) was 1.7 µM, the TGI (A498 renal) was 3.24 µM and the GI50 (BT-549 breast) was 1.71 µM. The TGI (BT-549 breast) was 3.18 µM, the GI50 (M14 melanoma) was 1.66 µM and the TGI (M14 melanoma) was 3.1 µM. The GI50 (SF-295 CNS) was 1.8 µM, the TGI (SF-295 CNS) was 3.3 µM and the GI50 (HS 578T breast) was 2.27 µM. The TGI (HS 578T breast) was 5.78 µM.
COc1ccc(Cn2c3c(c4c(O)cccc42)C(=O)c2ccccc2-3)cc1 showed a GI50 (NCI-H23 lung) of 9.24 µM, a TGI (NCI-H23 lung) of 22 µM and a GI50 (CAKI-1 renal) of 14.9 µM. It also gave a TGI (CAKI-1 renal) of 29.6 µM, a GI50 (786-0 renal) of 4.02 µM and a TGI (786-0 renal) of 16.7 µM. It also gave a GI50 (U251 CNS) of 14.1 µM, a TGI (U251 CNS) of 27.1 µM and a GI50 (OVCAR-3 ovarian) of 14.3 µM. It also gave a TGI (OVCAR-3 ovarian) of 28.7 µM, a GI50 (HCC-2998 colon) of 8.26 µM and a TGI (HCC-2998 colon) of 21.7 µM. For the same compound, the GI50 (SR leukemia) was 13.9 µM, the TGI (SR leukemia) was 30.5 µM and the GI50 (RPMI-8226 leukemia) was 11.8 µM. For the same compound, the TGI (RPMI-8226 leukemia) was 33.9 µM, the GI50 (K-562 leukemia) was 24.3 µM and the TGI (K-562 leukemia) was > 100 µM. For the same compound, the GI50 (SK-MEL-2 melanoma) was 18.2 µM, the TGI (SK-MEL-2 melanoma) was 45.9 µM and the GI50 (TK-10 renal) was 4.36 µM. The TGI (TK-10 renal) was 18.3 µM, the GI50 (SNB-19 CNS) was 6.05 µM and the TGI (SNB-19 CNS) was 23.4 µM. It also gave a GI50 (HCT-116 colon) of 9.16 µM, a TGI (HCT-116 colon) of 21.5 µM and a GI50 (EKVX NSCLC) of 12 µM. It also gave a TGI (EKVX NSCLC) of 27.7 µM, a GI50 (SN12C renal) of 15.6 µM and a TGI (SN12C renal) of 29 µM. For the same compound, the GI50 (HT29 colon) was 16 µM, the TGI (HT29 colon) was 38.5 µM and the GI50 (UO-31 renal) was 13.8 µM. The TGI (UO-31 renal) was 67.7 µM, the GI50 (A549 NSCLC) was 8.52 µM and the TGI (A549 NSCLC) was 32 µM. The GI50 (OVCAR-5 ovarian) was 10 µM, the TGI (OVCAR-5 ovarian) was 21.6 µM and the GI50 (MCF7 breast) was 10.7 µM. It also gave a TGI (MCF7 breast) of 28.1 µM, a GI50 (COLO 205 colon) of 25.9 µM and a TGI (COLO 205 colon) of 92.3 µM. For the same compound, the GI50 (PC-3 prostate) was 12.8 µM, the TGI (PC-3 prostate) was 25.4 µM and the GI50 (T-47D breast) was 11 µM. For the same compound, the TGI (T-47D breast) was 37.9 µM, the GI50 (CCRF-CEM leukemia) was 73.6 µM and the TGI (CCRF-CEM leukemia) was > 100 µM. The GI50 (OVCAR-8 ovarian) was 3.08 µM, the TGI (OVCAR-8 ovarian) was 13.2 µM and the GI50 (SF-268 CNS) was 8.75 µM. For the same compound, the TGI (SF-268 CNS) was 29.1 µM, the GI50 (DU-145 prostate) was 12.5 µM and the TGI (DU-145 prostate) was 24.9 µM. It also gave a GI50 (HOP-92 NSCLC) of 0.233 µM, a TGI (HOP-92 NSCLC) of 4.23 µM and a GI50 (KM12 colon) of 7.65 µM. The TGI (KM12 colon) was 22 µM, the GI50 (UACC-257 melanoma) was 11.7 µM and the TGI (UACC-257 melanoma) was 27.2 µM. For the same compound, the GI50 (LOX IMVI melanoma) was 18.8 µM, the TGI (LOX IMVI melanoma) was 47.8 µM and the GI50 (MDA-MB-231 breast) was 12.8 µM. For the same compound, the TGI (MDA-MB-231 breast) was 25.4 µM, the GI50 (UACC-62 melanoma) was 14.5 µM and the TGI (UACC-62 melanoma) was 30.1 µM. The GI50 (SK-MEL-28 melanoma) was 11.6 µM, the TGI (SK-MEL-28 melanoma) was 25 µM and the GI50 (SK-OV-3 ovarian) was 14.9 µM. It also gave a TGI (SK-OV-3 ovarian) of 28.1 µM, a GI50 (NCI-H226 lung) of 13.4 µM and a TGI (NCI-H226 lung) of 32.8 µM. It also gave a GI50 (NCI/ADR-RES ovarian) of 2.51 µM, a TGI (NCI/ADR-RES ovarian) of 11.3 µM and a GI50 (IGROV1 ovarian) of 11.2 µM. For the same compound, the TGI (IGROV1 ovarian) was > 100 µM, the GI50 (MALME-3M melanoma) was 8.71 µM and the TGI (MALME-3M melanoma) was 22.4 µM. The GI50 (HOP-62 NSCLC) was 4.39 µM, the TGI (HOP-62 NSCLC) was 14.9 µM and the GI50 (NCI-H522 lung) was 12.3 µM. It also gave a TGI (NCI-H522 lung) of 93.1 µM, a GI50 (MOLT-4 leukemia) of 15.8 µM and a TGI (MOLT-4 leukemia) of 49.3 µM. It also gave a GI50 (M14 melanoma) of 14.4 µM, a TGI (M14 melanoma) of 38 µM and a GI50 (ACHN renal) of 5.14 µM. It also gave a TGI (ACHN renal) of 16.6 µM, a GI50 (SF-295 CNS) of 12.6 µM and a TGI (SF-295 CNS) of 26.2 µM. The GI50 (NCI-H460 lung) was 12.8 µM, the TGI (NCI-H460 lung) was 36.5 µM and the GI50 (HS 578T breast) was 4.44 µM. It also gave a TGI (HS 578T breast) of 20.4 µM, a GI50 (MDA-MB-435) of 13.3 µM and a TGI (MDA-MB-435) of 30.8 µM. For the same compound, the GI50 (SW-620 colon) was 12.6 µM, the TGI (SW-620 colon) was 36.9 µM and the GI50 (SK-MEL-5 melanoma) was 7.76 µM. It also gave a TGI (SK-MEL-5 melanoma) of 20.6 µM, a GI50 (HCT-15 colon) of 16.1 µM and a TGI (HCT-15 colon) of 89.8 µM.
